Like-named read-outs stand apart in the source and are kept apart here. Square brackets hold non-standard residues; d marks the D form. Ends that are not written are not given here. Peptide text beside a SMILES is read from it. dPhe(4-Cl) = N[C@H](Cc1ccc(Cl)cc1)C(=O)O; dPhe(4-F) = N[C@H](Cc1ccc(F)cc1)C(=O)O; d2Nal = N[C@H](Cc1ccc2ccccc2c1)C(=O)O; Hyp = O=C(O)[C@@H]1C[C@@H](O)CN1; 2Thi = N[C@@H](Cc1cccs1)C(=O)O; d2Thi = N[C@H](Cc1cccs1)C(=O)O
Key:
[1] = test system: isolated guinea pig ileum; assay type: cell-based; parameters: pA2 /GPI: activity class: scale not given here; conditions: isolated guinea pig ileum; for pA2 /GPI (antagonist potency): number of tissues in parentheses; for pA2 /GPI: activity class: not quantitated
Method: (§1) The bradykinin antagonists were assayed on isolated rat uterus in natural or induced estrus and on guinea pig ileum, according to the commonly accepted assay methods for bradykinin and related kinins as described by Trautschold (Handbook of Expt. Pharmacol. Vol 25, Springer Verlag, pp. 53-55, 1970) for inhibition of the myotropic activity of bradykinin. The inhibition potencies, as determined according to the commonly accepted manner described by Schild for antagonists of biologically active compounds (Br. J. Pharmacol. 2:189, 1947), and expressed as pA2 values are determined on isolated rat uterus (RUT) and isolated guinea pig ileum (GPI). In the assays, a dose-response curve is determined for the reference substance bradykinin. The dose of bradykinin which produced a half maximal contraction of tissue is the ED50 dose. An amount of bradykinin equivalent to twice the ED50 dose is administered to the tissue 30 seconds after the start of incubation of the tissue with a dose of antagonist. Doses of antagonist are increased in this protocol until pre-incubation with a dose of antagonist reduces the contraction in response to the double ED50 dose of bradykinin to response of a single ED50 dose of bradykinin. The pA2 value represents the negative logarithm of the molar concentration of antagonist necessary to reduce the response of a double ED50 dose of bradykinin to that of an ED50 dose. One unit of pA2 value represents an order of magnitude change in potency. For comparison, the negative log of the dose of BK, the dose which causes half maximal contraction of the tissues, is commonly known as the pD2 value. The pD2 value for bradykinin is 7.9 on the rat uterus and 7.4 on the guinea pig ileum.

[2] = test system: isolated rat uterus; assay type: cell-based; conditions: for pA2 /RUT: activity class: not quantitated
Method: as §1

[3] = test system: rat blood pressure; experiment: effects on blood pressure in the anesthetized rat (RBP), intraaortic and intravenous bolus; assay type: in vivo
Method: The in vivo effects of bradykinin antagonists on blood pressure in the anesthetized rat are determined according to the assay described by Roblero, Ryan and Stewart (Res. Commun. Pathol. Pharmacol. 6:207, 1973). The antagonists also produce inhibition of the bradykinin response when injected as a bolus admixture of bradykinin plus antagonist by either the ia or iv route of administration.

[4] = isolated rat uterus, number of tissues in parentheses

Compound: RPPGFSPFRIY [Example 59, Arg-Pro-Pro-Gly-Phe-Ser-Pro-Phe-Arg-Ile-Tyr]
- pA2 /GPI: agonist potency as percent of BK potency [1]: 21%
- pA2 /RUT: agonist potency as percent of BK potency ([2]; isolated rat uterus): 26%
- RBP-IA: agonist potency as percent of BK potency ([3]; rat blood pressure, intraaortic bolus): 6%
- RBP-IV: agonist potency as percent of BK potency ([3]; rat blood pressure, intravenous bolus): 103%
- % DESTR (metabolic breakdown of BK-like agonists in RBP assay) ([3]; relative to BK = 100%): 61%

Compound: CC[C@H](C)[C@H](NC(=O)[C@H](CCCNC(=N)N)NC(=O)[C@H](Cc1cccs1)NC(=O)[C@@H](Cc1ccccc1)NC(=O)[C@H](CO)NC(=O)[C@H](Cc1cccs1)NC(=O)CNC(=O)[C@@H]1C[C@@H](O)CN1C(=O)[C@@H]1CCCN1C(=O)[C@H](CCCNC(=N)N)NC(=O)[C@H](N)CCCNC(=N)N)C(=O)N[C@@H](Cc1ccc(O)cc1)C(=O)O [Example 68, DArg-Arg-Pro-Hyp-Gly-Thi-Ser-DPhe-Thi-Arg-Ile-Tyr] (H-[dR]RP[Hyp]G[2Thi]S[dF][2Thi]RIY-OH)
- pA2 /GPI (antagonist potency) [1]: 6.7
- pA2 /RUT: agonist potency as percent of BK potency [2]: 0.02%
- RBP-IA: agonist potency as percent of BK potency ([3]; rat, in vivo): 7%

Compound: N=C(N)NCCC[C@H](NC(=O)[C@H](Cc1cccs1)NC(=O)[C@@H](Cc1ccccc1)NC(=O)[C@H](CO)NC(=O)[C@H](Cc1cccs1)NC(=O)CNC(=O)[C@@H]1CCCN1C(=O)[C@@H]1CCCN1C(=O)[C@H](N)Cc1ccccc1)C(=O)O [Example 19, DPhe-Pro-Pro-Gly-Thi-Ser-DPhe-Thi-Arg] (H-[dF]PPG[2Thi]S[dF][2Thi]R-OH)
- pA2 /GPI: activity class [1]: 0
- pA2 /RUT: activity class ([2]; isolated rat uterus): 0

Compound: N=C(N)NCCC[C@@H](N)C(=O)N[C@H](Cc1ccc(F)cc1)C(=O)N1CCC[C@H]1C(=O)N1C[C@H](O)C[C@H]1C(=O)NCC(=O)N[C@@H](Cc1ccccc1)C(=O)N[C@@H](CO)C(=O)N[C@H](Cc1ccccc1)C(=O)N[C@@H](Cc1ccccc1)C(=O)N[C@@H](CCCNC(=N)N)C(=O)O [Example 12, DArg-FDF-Pro-Hyp-Gly-Phe-Ser-DPhe-Phe-Arg] (H-[dR][dPhe(4-F)]P[Hyp]GFS[dF]FR-OH)
- pA2 /GPI: activity class [1]: 0
- pA2 /RUT (antagonist potency) [2, 4]: 5.7

Compound: N=C(N)NCCC[C@H](N)C(=O)N1CCC[C@H]1C(=O)N1CCC[C@H]1C(=O)NCC(=O)N[C@@H](Cc1cccs1)C(=O)N[C@@H](CO)C(=O)N[C@H](Cc1ccccc1)C(=O)N[C@@H](Cc1cccs1)C(=O)N[C@H](CCCNC(=N)N)C(=O)O [Example 41, Arg-Pro-Pro-Gly-Thi-Ser-DPhe-Thi-DArg] (H-RPPG[2Thi]S[dF][2Thi][dR]-OH)
- pA2 /GPI: activity class [1]: 0
- pA2 /RUT: agonist potency as percent of BK potency [2]: 0.01%
- % DESTR (metabolic breakdown of BK-like agonists in RBP assay) ([3]; rat, in vivo): 77%
- RBP-IA: agonist potency as percent of BK potency ([3]; rat, in vivo): 0.1%
- RBP-IV: agonist potency as percent of BK potency ([3]; rat, in vivo, iv): 0.6%

Compound: N=C(N)NCCC[C@@H](N)C(=O)N[C@H](Cc1ccc2ccccc2c1)C(=O)N1C[C@H](O)C[C@H]1C(=O)N1C[C@H](O)C[C@H]1C(=O)NCC(=O)N[C@@H](Cc1cccs1)C(=O)N[C@@H](CO)C(=O)N[C@H](Cc1ccccc1)C(=O)N[C@@H](Cc1cccs1)C(=O)N[C@@H](CCCNC(=N)N)C(=O)O [Example 27, DArg-DNal-Hyp-Hyp-Gly-Thi-Ser-DPhe-Thi-Arg] (H-[dR][d2Nal][Hyp][Hyp]G[2Thi]S[dF][2Thi]R-OH)
- pA2 /GPI: activity class [1]: 0
- pA2 /RUT (antagonist potency) [2]: 5.3

Compound: N=C(N)NCCC[C@@H](N)C(=O)N[C@H](Cc1ccc(Cl)cc1)C(=O)N1CCC[C@H]1C(=O)N1CCC[C@H]1C(=O)NCC(=O)N[C@@H](Cc1ccccc1)C(=O)N[C@@H](CO)C(=O)N[C@H](Cc1ccccc1)C(=O)N[C@@H](Cc1ccccc1)C(=O)N[C@@H](CCCNC(=N)N)C(=O)O [Example 4, DArg-CDF-Pro-Pro-Gly-Phe-Ser-DPhe-Phe-Arg] (H-[dR][dPhe(4-Cl)]PPGFS[dF]FR-OH)
- pA2 /GPI: activity class [1]: 0
- pA2 /RUT (antagonist potency) [2, 4]: 5.4

Compound: N=C(N)NCCC[C@@H](N)C(=O)N[C@H](Cc1ccc2ccccc2c1)C(=O)N1CCC[C@H]1C(=O)N1C[C@H](O)C[C@H]1C(=O)NCC(=O)N[C@@H](Cc1ccccc1)C(=O)N[C@@H](CO)C(=O)N[C@H](Cc1cccs1)C(=O)N[C@@H](Cc1ccccc1)C(=O)N[C@@H](CCCNC(=N)N)C(=O)O [Example 40, DArg-DNal-Pro-Hyp-Gly-Phe-Ser-DThi-Phe-Arg] (H-[dR][d2Nal]P[Hyp]GFS[d2Thi]FR-OH)
- pA2 /GPI: activity class [1]: 0
- pA2 /RUT (antagonist potency) [2]: 5.6

Compound: CC(=O)N[C@@H](CCCNC(=N)N)C(=O)N1CCC[C@H]1C(=O)N1CCC[C@H]1C(=O)NCC(=O)N[C@@H](Cc1cccs1)C(=O)N[C@@H](CO)C(=O)N[C@H](Cc1ccccc1)C(=O)N[C@@H](Cc1cccs1)C(=O)N[C@@H](CCCNC(=N)N)C(N)=O [Example 52, Ac-Arg-Pro-Pro-Gly-Thi-Ser-DPhe-Thi-Arg-NH2] (Ac-RPPG[2Thi]S[dF][2Thi]R-NH2)
- pA2 /GPI: activity class [1]: 0
- pA2 /RUT: activity class ([2]; isolated rat uterus): 0

Compound: CC[C@H](C)[C@H](NC(=O)[C@H](CCCNC(=N)N)NC(=O)[C@H](Cc1ccccc1)NC(=O)[C@@H](Cc1ccccc1)NC(=O)[C@H](CO)NC(=O)[C@H](Cc1ccccc1)NC(=O)CNC(=O)[C@@H]1CCCN1C(=O)[C@@H]1CCCN1C(=O)[C@H](CCCNC(=N)N)NC(=O)[C@H](N)CCCNC(=N)N)C(=O)N[C@@H](Cc1ccc(O)cc1)C(=O)O [Example 64, DArg-Arg-Pro-Pro-Gly-Phe-Ser-DPhe-Phe-Arg-Ile-Tyr] (H-[dR]RPPGFS[dF]FRIY-OH)
- pA2 /GPI (antagonist potency) [1]: 6.2
- pA2 /RUT: agonist potency as percent of BK potency ([2]; isolated rat uterus): 0.7%

Compound: N=C(N)NCCC[C@@H](N)C(=O)N[C@H](Cc1ccc2ccccc2c1)C(=O)N1CCC[C@H]1C(=O)N1C[C@H](O)C[C@H]1C(=O)NCC(=O)N[C@@H](Cc1ccccc1)C(=O)N[C@@H](CO)C(=O)N[C@H](Cc1ccccc1)C(=O)N[C@@H](Cc1ccccc1)C(=O)N[C@@H](CCCNC(=N)N)C(=O)O [Example 32, DArg-DNal-Pro-Hyp-Gly-Phe-Ser-DPhe-Phe-Arg] (H-[dR][d2Nal]P[Hyp]GFS[dF]FR-OH)
- pA2 /GPI: activity class [1]: 0
- pA2 /RUT (antagonist potency) [2]: 5.9

Compound: N=C(N)NCCC[C@@H](N)C(=O)N1CCC[C@H]1C(=O)N1C[C@H](O)C[C@H]1C(=O)NCC(=O)N[C@@H](Cc1cccs1)C(=O)N[C@@H](CO)C(=O)N[C@H](Cc1ccccc1)C(=O)N[C@@H](Cc1cccs1)C(=O)N[C@@H](CCCNC(=N)N)C(=O)O [Example 8, DArg-Pro-Hyp-Gly-Thi-Ser-DPhe-Thi-Arg] (H-[dR]P[Hyp]G[2Thi]S[dF][2Thi]R-OH)
- pA2 /GPI (antagonist potency) [1]: 5.4
- pA2 /RUT (antagonist potency) [2]: 5.4

Compound: N=C(N)NCCC[C@@H](N)C(=O)N[C@@H](CCCNC(=N)N)C(=O)N1CCC[C@H]1C(=O)N1CCC[C@H]1C(=O)NCC(=O)N[C@@H](Cc1cccs1)C(=O)N[C@@H](CO)C(=O)N[C@H](Cc1ccccc1)C(=O)N[C@@H](Cc1cccs1)C(=O)N[C@H](CCCNC(=N)N)C(=O)O [Example 43, DArg-Arg-Pro-Pro-Gly-Thi-Ser-DPhe-Thi-DArg] (H-[dR]RPPG[2Thi]S[dF][2Thi][dR]-OH)
- pA2 /GPI: activity class [1]: 0
- pA2 /RUT: activity class ([2]; isolated rat uterus): 0

Compound: N=C(N)NCCC[C@H](NC(=O)[C@H](Cc1ccccc1)NC(=O)[C@@H](Cc1cccs1)NC(=O)[C@H](CO)NC(=O)[C@H](Cc1ccccc1)NC(=O)CNC(=O)[C@@H]1C[C@@H](O)CN1C(=O)[C@@H]1CCCN1C(=O)[C@H](N)Cc1ccc2ccccc2c1)C(=O)O [Example 38, DNal-Pro-Hyp-Gly-Phe-Ser-DThi-Phe-Arg] (H-[d2Nal]P[Hyp]GFS[d2Thi]FR-OH)
- pA2 /GPI: activity class [1]: 0
- pA2 /RUT: activity class ([2]; isolated rat uterus): 0

Compound: N=C(N)NCCC[C@H](NC(=O)[C@H](Cc1cccs1)NC(=O)[C@@H](Cc1ccccc1)NC(=O)[C@H](CO)NC(=O)[C@H](Cc1cccs1)NC(=O)CNC(=O)[C@@H]1C[C@@H](O)CN1C(=O)[C@@H]1C[C@@H](O)CN1C(=O)[C@H](N)Cc1ccc2ccccc2c1)C(=O)O [Example 26, DNal-Hyp-Hyp-Gly-Thi-Ser-DPhe-Thi-Arg] (H-[d2Nal][Hyp][Hyp]G[2Thi]S[dF][2Thi]R-OH)
- pA2 /GPI: activity class [1]: 0
- pA2 /RUT: activity class ([2]; isolated rat uterus): 0

Compound: N=C(N)NCCC[C@H](NC(=O)[C@H](Cc1ccccc1)NC(=O)[C@@H](Cc1ccccc1)NC(=O)[C@H](CO)NC(=O)[C@H](Cc1ccccc1)NC(=O)CNC(=O)[C@@H]1CCCN1C(=O)[C@@H]1CCCN1C(=O)[C@H](N)Cc1ccc(Cl)cc1)C(=O)O [Example 2, CDF-Pro-Pro-Gly-Phe-Ser-DPhe-Phe-Arg] (H-[dPhe(4-Cl)]PPGFS[dF]FR-OH)
- pA2 /GPI: activity class [1]: 0
- pA2 /RUT (antagonist potency) [2, 4]: 5.0

Compound: N=C(N)NCCC[C@H](NC(=O)[C@H](Cc1ccccc1)NC(=O)[C@@H](Cc1ccccc1)NC(=O)[C@H](CO)NC(=O)[C@H](Cc1ccccc1)NC(=O)CNC(=O)[C@@H]1CCCN1C(=O)[C@@H]1CCCN1C(=O)[C@H](N)Cc1ccc2ccccc2c1)C(=O)O [Example 29, DNal-Pro-Pro-Gly-Phe-Ser-DPhe-Phe-Arg] (H-[d2Nal]PPGFS[dF]FR-OH)
- pA2 /GPI: activity class [1]: 0
- pA2 /RUT (antagonist potency) [2]: 5.4

— patent US4923963A, “Bradykinin antagonist peptides” (Nova Technology Limited Partnership, priority 1987, dated 1990)
